Experimental data taken from patent US20100151062A1, “Determining nutrients for animals through gene expression” (priority 2008, published 2010).

Tested on: cartilage cells of individual affected unhealthy dogs
Assay: In vitro culture of cartilage cells of affected dogs with curcumin or andrographolide, microarray
Type: cell-based, dog
Details: mean; for Fold change of gene expression, ACTB / Fold change of gene expression, ACTR3 / Fold change of gene expression, ADK / Fold change of gene expression, ANKRD10 / Fold change of gene expression, CAV1 / Fold change of gene expression, CDH11 / Fold change of gene expression, COL3A1 / Fold change of gene expression, COX1 / Fold change of gene expression, COX2 / Fold change of gene expression, IGFBP7 / Fold change of gene expression, IL2 / Fold change of gene expression, MMP2 / Fold change of gene expression, NOS2 / Fold change of gene expression, PTGS-2 / Fold change of gene expression, SPARC / Fold change of gene expression, STMN1 / Fold change of gene expression, TIMP1 / Fold change of gene expression, TIMP2 / Fold change of gene expression, TNF-a / Fold change of gene expression, TUBA / Fold change of gene expression, TUBB: 60 mg/l vs 0, 6 hours, cartilage cells of affected dogs; for Fold change of gene expression, ACTB / Net effect of the NBC on fold change, ACTB: gene ACTB; for Net effect of the NBC on fold change, ACTB / Net effect of the NBC on fold change, ACTR3 / Net effect of the NBC on fold change, ADK / Net effect of the NBC on fold change, ANKRD10 / Net effect of the NBC on fold change, CAV1 / Net effect of the NBC on fold change, CDH11 / Net effect of the NBC on fold change, COL3A1 / Net effect of the NBC on fold change, COX1 / Net effect of the NBC on fold change, COX2 / Net effect of the NBC on fold change, IGFBP7 / Net effect of the NBC on fold change, IL2 / Net effect of the NBC on fold change, MMP2 / Net effect of the NBC on fold change, NOS2 / Net effect of the NBC on fold change, PTGS-2 / Net effect of the NBC on fold change, SPARC / Net effect of the NBC on fold change, STMN1 / Net effect of the NBC on fold change, TIMP1 / Net effect of the NBC on fold change, TIMP2 / Net effect of the NBC on fold change, TNF-a / Net effect of the NBC on fold change, TUBA / Net effect of the NBC on fold change, TUBB: 60 mg/l, 6 hours; for Fold change of gene expression, ACTR3 / Net effect of the NBC on fold change, ACTR3: gene ACTR3; for Fold change of gene expression, ADK / Net effect of the NBC on fold change, ADK: gene ADK; for Fold change of gene expression, ANKRD10 / Net effect of the NBC on fold change, ANKRD10: gene ANKRD10; for Fold change of gene expression, CAV1 / Net effect of the NBC on fold change, CAV1: gene CAV1; for Fold change of gene expression, CDH11 / Net effect of the NBC on fold change, CDH11: gene CDH11; for Fold change of gene expression, COL3A1 / Net effect of the NBC on fold change, COL3A1: gene COL3A1; for Fold change of gene expression, COX1 / Net effect of the NBC on fold change, COX1: gene COX1; for Fold change of gene expression, COX2 / Net effect of the NBC on fold change, COX2: gene COX2; for Fold change of gene expression, IGFBP7 / Net effect of the NBC on fold change, IGFBP7: gene IGFBP7; for Fold change of gene expression, IL2 / Net effect of the NBC on fold change, IL2: gene IL2; for Fold change of gene expression, MMP2 / Net effect of the NBC on fold change, MMP2: gene MMP2; for Fold change of gene expression, NOS2 / Net effect of the NBC on fold change, NOS2: gene NOS2; for Fold change of gene expression, PTGS-2 / Net effect of the NBC on fold change, PTGS-2: gene PTGS-2; for Fold change of gene expression, SPARC / Net effect of the NBC on fold change, SPARC: gene SPARC; for Fold change of gene expression, STMN1 / Net effect of the NBC on fold change, STMN1: gene STMN1; for Fold change of gene expression, TIMP1 / Net effect of the NBC on fold change, TIMP1: gene TIMP1; for Fold change of gene expression, TIMP2 / Net effect of the NBC on fold change, TIMP2: gene TIMP2; for Fold change of gene expression, TNF-a / Net effect of the NBC on fold change, TNF-a: gene TNF-a; for Fold change of gene expression, TUBA / Net effect of the NBC on fold change, TUBA: gene TUBA; for Fold change of gene expression, TUBB / Net effect of the NBC on fold change, TUBB: gene TUBB
Protocol: Total RNA of cells was extracted using phenol/guanidine HCl reagents (Trizol, Invitrogen). RNA quality integrity was analysed using the Agilent 2100 Bioanalyser (Agilent Technologies) of the sample. The samples determined to have no, or minimal, loss of integrity and thus were considered suitable for use in experiments. mRNA was amplified for each sample, starting with 500 ng total RNA using a commercially available kit (Ambion T7 MEGAscript high yield transcription kit, Ambion). The mRNA was quantified using a spectrophotometer. mRNA was directly reverse transcribed to cDNA from 25 μg of total RNA using the Superscript indirect cDNA labeling Core kit (Invitrogen, Milan, Italy).
Two micrograms of cDNA were labelled with Cyanine-3dCTP (Cy3) or Cyanine-5dCTP (Cy5) fluorochromes using the cDNA labeling purification module kit (Invitrogen, Milan, Italy). Samples were hybridised to a canine specific, whole genome 44k spot 60mer oligonucleotide (Agilent Technologies). The labelled cDNA was appropriately coupled and used for competitive hybridization on the same microarray at 42° C. for 16 h. Fluorescence incorporation was determined using a spectrophotometer. The relative intensity of labelled cDNA in was acquired with ScanArray LITE scanner (PerkinElmer Life Sciences, Inc).
Expression data were then exported into Excel 2007 and processed with SAM software; comparison between groups was achieved using paired student's t tests. […] Correction for multiple hypothesis testing was performed using the false discovery rate (FDR).
Searching within the nutrient data set for biologically active nutrients with anti-arthritic and anti-inflammatory properties identified curcumin and androgropholide as the appropriated compositions. The cartilage cells of individual affected unhealthy dogs were cultured in vitro with 0, or 60 mg/l of curcumin or androgropholide for 6 hours. At the end of the incubation, these cartilage cells from individual affected dogs were washed and used for RNA extraction. For the microarray analysis, co-hybridisation of the RNA from 0 and 60 mg/l was conducted, using the material and the methods described previously.

SMILES: C=C1CC[C@@H]2[C@](C)(CO)[C@H](O)CC[C@@]2(C)[C@@H]1C/C=C1/C(=O)OC[C@H]1O [Androgrpholide]
- Fold change of gene expression, ACTB: −1.0
- Net effect of the NBC on fold change, ACTB: 2.8
- Fold change of gene expression, ACTR3: 1.0
- Net effect of the NBC on fold change, ACTR3: 1.3
- Fold change of gene expression, ADK: 0.0
- Net effect of the NBC on fold change, ADK: 3.6
- Fold change of gene expression, ANKRD10: 0.0
- Net effect of the NBC on fold change, ANKRD10: 5.2
- Fold change of gene expression, CAV1: 0.0
- Net effect of the NBC on fold change, CAV1: 4.8
- Fold change of gene expression, CDH11: −1.0
- Net effect of the NBC on fold change, CDH11: 5.9
- Fold change of gene expression, COL3A1: −2.0
- Net effect of the NBC on fold change, COL3A1: 7.5
- Fold change of gene expression, COX1: 0.0
- Net effect of the NBC on fold change, COX1: 0.8
- Fold change of gene expression, COX2: 0.0
- Net effect of the NBC on fold change, COX2: 23.0
- Fold change of gene expression, IGFBP7: −2.0
- Net effect of the NBC on fold change, IGFBP7: 1.7
- Fold change of gene expression, IL2: −6.0
- Net effect of the NBC on fold change, IL2: −3.0
- Fold change of gene expression, MMP2: −5.0
- Net effect of the NBC on fold change, MMP2: 5.0
- Fold change of gene expression, NOS2: −6.0
- Net effect of the NBC on fold change, NOS2: −5.8
- Fold change of gene expression, PTGS-2: −5.0
- Net effect of the NBC on fold change, PTGS-2: −3.8
- Fold change of gene expression, SPARC: 0.0
- Net effect of the NBC on fold change, SPARC: 6.3
- Fold change of gene expression, STMN1: 0.0
- Net effect of the NBC on fold change, STMN1: 6.2
- Fold change of gene expression, TIMP1: 0.0
- Net effect of the NBC on fold change, TIMP1: 6.2
- Fold change of gene expression, TIMP2: 0.0
- Net effect of the NBC on fold change, TIMP2: 2.0
- Fold change of gene expression, TNF-a: −8.0
- Net effect of the NBC on fold change, TNF-a: 2.0
- Fold change of gene expression, TUBA: 0.0
- Net effect of the NBC on fold change, TUBA: 4.7
- Fold change of gene expression, TUBB: 0.0
- Net effect of the NBC on fold change, TUBB: 4.8

SMILES: COc1cc(/C=C/C(=O)CC(=O)/C=C/c2ccc(O)c(OC)c2)ccc1O [curcumin]
- Fold change of gene expression, ACTB: −5.0
- Net effect of the NBC on fold change, ACTB: −1.2
- Fold change of gene expression, ACTR3: −1.0
- Net effect of the NBC on fold change, ACTR3: −4.0
- Fold change of gene expression, ADK: −4.3
- Net effect of the NBC on fold change, ADK: −1.4
- Fold change of gene expression, ANKRD10: −7.0
- Net effect of the NBC on fold change, ANKRD10: −1.8
- Fold change of gene expression, CAV1: −3.0
- Net effect of the NBC on fold change, CAV1: 1.8
- Fold change of gene expression, CDH11: −6.0
- Net effect of the NBC on fold change, CDH11: 0.9
- Fold change of gene expression, COL3A1: −6.0
- Net effect of the NBC on fold change, COL3A1: 3.5
- Fold change of gene expression, COX1: −1.0
- Net effect of the NBC on fold change, COX1: −0.2
- Fold change of gene expression, COX2: −15.0
- Net effect of the NBC on fold change, COX2: 8.0
- Fold change of gene expression, IGFBP7: −1.5
- Net effect of the NBC on fold change, IGFBP7: 2.2
- Fold change of gene expression, IL2: −4.0
- Net effect of the NBC on fold change, IL2: −1.0
- Fold change of gene expression, MMP2: −6.5
- Net effect of the NBC on fold change, MMP2: 3.5
- Fold change of gene expression, NOS2: −0.5
- Net effect of the NBC on fold change, NOS2: −0.3
- Fold change of gene expression, PTGS-2: −3.0
- Net effect of the NBC on fold change, PTGS-2: −1.8
- Fold change of gene expression, SPARC: −4.0
- Net effect of the NBC on fold change, SPARC: 2.3
- Fold change of gene expression, STMN1: −5.0
- Net effect of the NBC on fold change, STMN1: 1.2
- Fold change of gene expression, TIMP1: −5.0
- Net effect of the NBC on fold change, TIMP1: 1.2
- Fold change of gene expression, TIMP2: −2.0
- Net effect of the NBC on fold change, TIMP2: 0.0
- Fold change of gene expression, TNF-a: −14.5
- Net effect of the NBC on fold change, TNF-a: −4.5
- Fold change of gene expression, TUBA: −2.0
- Net effect of the NBC on fold change, TUBA: 2.7
- Fold change of gene expression, TUBB: −5.0
- Net effect of the NBC on fold change, TUBB: −0.2
